Assays:
[1] = Fluorescence quantum yield of BDSA in solution and as nanoaggregates; format: physicochemical
Excerpt: A representative transmission electron microscopic (TEM) image of the obtained nanoaggregates with a diameter of 44±7 nm is shown in FIG. 1a. […] The fluorescence quantum yield (Φf) of nanoaggregated state varies (0.1˜0.3), depending on the preparation conditions, including solvent, solvent/water ratio, and overall dye concentration, etc. […] No notable sign of H- or J-aggregation was observed, implying that molecular stacking is neither too close nor well ordered within the nanoaggregated structure. The fluorescence quenching in solution can be understood as dominant non-radiative decay, enhanced by free intramolecular torsional motion in solution, as in the case of flexible molecules showing viscosity-dependent fluorescence. Moreover, the weak, broad, and red-shifted emission of the solution, compared to that of the aggregate, implies the existence of large-amplitude relaxation in the excited state, such as twisted intramolecular charge transfer (TICT) which often acts as an intramolecular fluorescence quencher due to the nπ* characteristics. This is supported by our observation of intense and blue-shifted monomer fluorescence from a dilute solid solution of BDSA in PMMA film, where isolated molecules are frozen in the distorted form by rigid matrix, to prevent fluorescence quenching motion. The structural effect on aggregate formation and fluorescence was studied with a specific comparison between BDSA and the 1,4-phenylene analogue, BDSB, by varying the solvent/water ratio.

[2] = One- and two-photon excited fluorescence of HPPH/BDSA nanoparticles (intraparticle FRET); format: physicochemical; conditions: free HPPH, self-aggregation
Description: To produce fluorescent domains of BDSA aggregates in the particle matrix, the following amounts were loaded to induce phase separation: 10, 20, and 30 wt % with respect to the total VTES amount. Fluorescence lifetime measurements were performed using Time correlated Single Photon Counting (TCSPC) technique. For this measurements, Ti:Sapphire laser providing 800 nm femtosecond pulses was used as excitation source and a SPC-830 TCSPC module (Becker & Hickl) with an H7422 (Hamamatsu) detector with a response time in the range of 250 ps was used for the measurements. […] For an estimation of the instrument response function (IRF), a dye with a known fluorescence lifetime (from Streak camera measurements), less than 50 ps was used. […] For quantitative comparison, the concentrations of the nanoparticle water dispersions were kept the same for all the sample sets. The dispersions of all examined HPPH-loaded nanoparticles had the absorbance of 0.07 at 665 nm.
When excited at 425 nm, the obtained fluorescence spectrum of the coencapsulating nanoparticles is a composite of the emission contributions from the donor BDSA aggregates and the acceptor HPPH. Compared with the fluorescence intensities of the nanoparticles containing the corresponding amount of each dye, BDSA emission is quenched by 70% and HPPH emission is amplified ca. 5 times, indicating the occurrence of FRET. […]

Row | Fluorescence quantum yield (Φf) ([1]; NMP solution) | Fluorescence intensification by aggregation ([1]; aggregate versus NMP solution) | Fluorescence change on aggregate formation ([1]; varying solvent/water ratio, THF/H2O, 5 μM (FIG. 2)) | Fluorescence in water dispersions [2] | Structure (SMILES)
1 | ~0.009 | more than 30 times | Enhanced fluorescence is seen | – | CN(CCOC(=O)c1ccccc1)c1ccc(C=Cc2ccc(C=Cc3c4ccccc4c(C=Cc4ccc(C=Cc5ccc(N(C)CCOC(=O)c6ccccc6)cc5)cc4)c4ccccc34)cc2)cc1 [BDSA, 9,10-Bis(4′-{4″-[N-methyl-N-(2-benzoyloxyethyl)amino]styryl}styryl)anthracene]
2 | – | – | – | completely quenched | CCCCCCOC(C)C1=C(C)c2cc3nc(c4c5[nH]c(cc6[nH]c(cc1n2)c(C)c6CC)c(C)c5C(=O)C4)C(CCC(=O)O)C3C (stereo not shown) [HPPH, 2-devinyl-2-(1-hexyloxyethyl)pyropheophorbide]
